How the values were obtained:
hNav1.7 [1] = biological target: T1, hNav1.7 (Homo sapiens (Human), UniProt Q15858); experiment: Patch voltage clamp electrophysiology (PatchXpress), HEK-293 cells, inactivated state block; assay type: cell-based; settings: HEK-293 cells, β1 coexpressed; inactivated state, holding −60 mV; read-out: EP_PX 293 hNav1.7 (IC50)
hNav1.7 [2] = biological target: T1, hNav1.7; experiment: Tritiated aryl sulfonamide binding to membranes from cells expressing hNav1.7 and the β1 subunit (competitive binding); settings: membranes with hNav1.7 and β1 subunit; [3H]compound displacement, 18 h, room temperature; read-out: NaV1.7 395 Memb Binding (IC50)
In short: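 Competitive displacement of 100 μM [3H]-labelled tritiated aryl sulfonamide from hNav1.7/β1 membranes, 18 h at room temperature in 100 mM NaCl, 20 mM Tris HCl pH 7.4. Non-specific binding defined with 1 μM unlabelled compound. Filter-bound radioactivity measured by liquid scintillation counting.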

T1 sequence (Q15858 whole entry, looked up): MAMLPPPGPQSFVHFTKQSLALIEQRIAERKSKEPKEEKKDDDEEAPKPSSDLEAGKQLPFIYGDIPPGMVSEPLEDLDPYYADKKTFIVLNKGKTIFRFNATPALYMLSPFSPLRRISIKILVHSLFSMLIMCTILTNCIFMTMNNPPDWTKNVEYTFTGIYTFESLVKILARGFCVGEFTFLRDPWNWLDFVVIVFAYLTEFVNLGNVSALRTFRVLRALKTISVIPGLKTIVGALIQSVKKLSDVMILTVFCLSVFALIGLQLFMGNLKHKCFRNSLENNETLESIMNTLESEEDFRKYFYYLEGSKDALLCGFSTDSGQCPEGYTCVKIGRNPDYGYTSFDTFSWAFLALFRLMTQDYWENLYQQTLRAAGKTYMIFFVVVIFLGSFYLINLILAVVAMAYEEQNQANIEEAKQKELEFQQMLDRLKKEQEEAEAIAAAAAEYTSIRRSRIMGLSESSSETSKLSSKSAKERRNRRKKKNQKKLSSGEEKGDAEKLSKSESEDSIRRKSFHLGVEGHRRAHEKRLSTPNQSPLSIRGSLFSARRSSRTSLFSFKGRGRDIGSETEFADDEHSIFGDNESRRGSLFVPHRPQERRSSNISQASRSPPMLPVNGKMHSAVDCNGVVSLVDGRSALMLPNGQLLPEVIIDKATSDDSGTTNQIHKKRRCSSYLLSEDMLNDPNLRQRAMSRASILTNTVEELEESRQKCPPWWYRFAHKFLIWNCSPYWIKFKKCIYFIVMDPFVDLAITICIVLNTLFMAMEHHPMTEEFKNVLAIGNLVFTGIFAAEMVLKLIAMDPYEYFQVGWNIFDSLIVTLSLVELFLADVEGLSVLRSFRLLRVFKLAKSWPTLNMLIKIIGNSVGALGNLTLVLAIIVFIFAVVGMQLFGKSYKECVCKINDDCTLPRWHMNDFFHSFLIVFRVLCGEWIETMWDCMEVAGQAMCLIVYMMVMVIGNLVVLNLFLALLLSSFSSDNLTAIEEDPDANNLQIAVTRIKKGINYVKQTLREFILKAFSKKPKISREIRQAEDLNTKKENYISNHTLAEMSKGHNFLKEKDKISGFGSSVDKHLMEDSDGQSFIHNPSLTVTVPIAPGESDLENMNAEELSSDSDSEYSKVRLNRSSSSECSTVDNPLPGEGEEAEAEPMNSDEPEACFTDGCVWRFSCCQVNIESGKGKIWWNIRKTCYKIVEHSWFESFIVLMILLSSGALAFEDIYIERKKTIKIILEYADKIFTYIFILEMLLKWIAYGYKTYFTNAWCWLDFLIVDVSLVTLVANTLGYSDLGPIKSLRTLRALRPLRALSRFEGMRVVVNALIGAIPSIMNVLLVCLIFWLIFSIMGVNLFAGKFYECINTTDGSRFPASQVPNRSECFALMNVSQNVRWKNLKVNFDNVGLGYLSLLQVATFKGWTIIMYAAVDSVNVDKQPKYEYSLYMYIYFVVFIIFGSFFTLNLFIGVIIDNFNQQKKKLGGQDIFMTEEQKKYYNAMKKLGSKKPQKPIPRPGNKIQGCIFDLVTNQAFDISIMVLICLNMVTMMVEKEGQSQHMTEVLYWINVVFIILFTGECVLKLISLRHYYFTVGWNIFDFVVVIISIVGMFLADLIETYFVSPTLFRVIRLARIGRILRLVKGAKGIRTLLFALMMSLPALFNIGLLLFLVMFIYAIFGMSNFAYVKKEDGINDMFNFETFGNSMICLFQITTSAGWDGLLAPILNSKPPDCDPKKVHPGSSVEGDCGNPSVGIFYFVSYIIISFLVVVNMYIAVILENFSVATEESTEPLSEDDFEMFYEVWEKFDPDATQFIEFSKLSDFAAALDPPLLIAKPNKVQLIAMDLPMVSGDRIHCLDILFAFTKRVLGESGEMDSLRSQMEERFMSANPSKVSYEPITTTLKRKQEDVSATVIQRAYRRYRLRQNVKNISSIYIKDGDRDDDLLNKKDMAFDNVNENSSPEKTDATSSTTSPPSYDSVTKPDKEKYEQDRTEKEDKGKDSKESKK
T1 sequence (Q07699 whole entry partner, looked up): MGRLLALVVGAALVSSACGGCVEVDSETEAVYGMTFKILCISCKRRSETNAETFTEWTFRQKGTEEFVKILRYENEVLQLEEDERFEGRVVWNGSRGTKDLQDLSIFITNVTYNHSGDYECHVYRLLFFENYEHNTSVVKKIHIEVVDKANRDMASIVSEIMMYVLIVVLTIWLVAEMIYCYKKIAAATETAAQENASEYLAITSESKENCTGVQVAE

Molecule	IC50 (hNav1.7 [1])	IC50 (hNav1.7 [2])
COC(=O)C12CC3C[C@H](C1)C(Oc1cc(F)c(C(=O)NS(C)(=O)=O)cc1Cl)[C@@H](C3)C2 (stereo partly drawn) [Example 353, (1s,3R,4r,5S,7s)-methyl 4-(2-chloro-5-fluoro-4-((methyl-sulfonyl)carbamoyl)-phenoxy)adamantane-1-carboxylate]	240 nM	130 nM
CC1(COc2cc(F)c(C(=O)NS(=O)(=O)C3CC3)cc2C2CC2)CC=CCC1 (stereo not shown)	12 nM	5 nM
O=C(NS(=O)(=O)N1CCC1)c1cc(Cl)c(OCC23CC4CC(CC(C4)C2)C3)c(F)c1F	2300 nM	370 nM
O=C(NS(=O)(=O)C1CC1)c1cc(C2CC2)c(OC2C3CC4CC(C3)CC2C4)cc1F (stereo not shown) [Example 332]	27 nM	4 nM
O=C(NS(=O)(=O)C1CC1)c1cc(C2CC2(F)F)c(OCC23CC4CC(CC(C4)C2)C3)cc1F (stereo not shown)	140 nM	4 nM
CS(=O)(=O)NC(=O)c1cc(Cl)c(OCC2CC=CCC2)cc1F (stereo not shown)	1300 nM	130 nM
O=C(NS(=O)(=O)C1CC1)c1cc(Cl)c(OC2CCC(Cl)(Cl)CC2)cc1F [Example 293]	140 nM	180 nM
O=C(NS(=O)(=O)N1CCC1)c1cc(C2CC2)c(OCC2CN(C(c3ccccc3)c3ccccc3)C2)cc1F (racemic)	350 nM	12 nM
CS(=O)(=O)NC(=O)c1cc(Cl)c(OCC23CC4CC(CC(O)(C4)C2)C3)cc1F	2250 nM	10000 nM
CNS(=O)(=O)NC(=O)c1cc(C2CC2)c(OCC2CCCC(F)(F)C2)cc1F (stereo not shown) [Example 403]	910 nM	90 nM
O=C(NS(=O)(=O)C1CC1)c1cc(C2CC2)c(OCC23CCCCC2C3(F)F)cc1F (stereo not shown) [Example 430, 5-cyclopropyl-N-cyclopropylsulfonyl-4-[(7,7-difluoronorcaran-1-yl)methoxy]-2-fluoro-benzamide]	10 nM	3 nM
CS(=O)(=O)NC(=O)c1cc(C2CC2)c(OCC2CCC3C(C2)C3(F)F)cc1F (stereo not shown)	19 nM	21 nM
O=C(NS(=O)(=O)N1CC(F)C1)c1cc(C2CC2)c(O[C@H]2C3CC4CC2C[C@@](Cl)(C4)C3)cc1F	890 nM	28 nM
O=C(NS(=O)(=O)C1CC1)c1cc(C2CC2)c(OCC2CCC(C(F)(F)F)CC2)cc1F (stereo not shown) [Example 428, 5-cyclopropyl-N-cyclopropylsulfonyl-2-fluoro-4-[[4-(trifluoromethyl)cyclohexyl]methoxy]benzamide]	12 nM	4 nM
CC(Oc1cc(F)c(C(=O)NS(C)(=O)=O)cc1Cl)C12CC3CC(CC(C3)C1)C2 (stereo not shown) [Example 31]	146 nM	1400 nM
CNS(=O)(=O)NC(=O)c1cc(C2CC2)c(OCC2CN(C(c3ccccc3)c3ccccc3)C2)cc1F	600 nM	34 nM
5-chloro-4-(cyclohexylmethoxy)-2-fluoro-N-(methylsulfonyl)benzamide [Example 21]	107 nM	1060 nM
O=C(NS(=O)(=O)N1CCC1)c1cc(Cl)c(OCC2(C(F)(F)F)CCC2)cc1F [Example 330]	91 nM	25 nM
CS(=O)(=O)NC(=O)c1cc(Cl)c(OCC23CC4CC(CC(C4)C2)C3)c(F)c1F	1500 nM	190 nM
CS(=O)(=O)NC(=O)c1ccc(OC[C@H]2CC[C@H](C(F)(F)F)CC2)cc1F	1000 nM	1500 nM
CC1(C)[C@@H]2CC[C@@]1(C)[C@@H](Oc1cc(F)c(C(=O)NS(C)(=O)=O)cc1Cl)C2 [Example 25]	27 nM	220 nM
CC1(OCc2cc(F)c(C(=O)NS(C)(=O)=O)cc2Cl)CCC(F)(F)CC1 [Example 305]	1400 nM	310 nM
O=C(NS(=O)(=O)C1CC1)c1cc(C2CC2)c(OC2CCC3(CCCCC3)CC2)cc1F	61 nM	4 nM
CS(=O)(=O)NC(=O)c1cc(C2CC2)c(O[C@H]2C3CC4CC2C[C@](F)(C4)C3)cc1F [Example 308]	180 nM	20 nM
O=C(NS(=O)(=O)N1CCC1)c1cc(C2CC2)c(COC23CC4CC(CC(C4)C2)C3)cc1F [Example 320]	140 nM	17 nM
O=C(NS(=O)(=O)C1CC1)c1cc(C2CC2)c(OCC2CCC3C(C2)C3(F)F)cc1F (stereo not shown)	9 nM	8 nM
[2H]C1([2H])C([2H])([2H])C([2H])([2H])C([2H])(COc2cc(F)c(C(=O)NS(=O)(=O)N3CCC3)cc2Cl)C([2H])([2H])C1([2H])[2H]	310 nM	160 nM
CC1CCCC(C)C1COc1cc(F)c(C(=O)NS(=O)(=O)N2CCC2)cc1Cl (stereo not shown)	74 nM	25 nM
CS(=O)(=O)NC(=O)c1cc(F)c(OCC23CC4CC(CC(C4)C2)C3)c(Cl)c1 [Example 325]	2500 nM	270 nM
CS(=O)(=O)NC(=O)c1cc(C2CC2)c(OCC23CCCCC2C3(F)F)cc1F (stereo not shown) [Example 310]	10 nM	84 nM

The next lines start with the values.

IC50 (hNav1.7 [1])	IC50 (hNav1.7 [2])	Molecule
67 nM	14 nM	O=C(NS(=O)(=O)N1CCC1)c1cc(C2CC2)c(OCC2CC23CCCCC3)cc1F (stereo not shown) [Example 347]
34 nM	15 nM	O=C(NS(=O)(=O)N1CCC1)c1cc(C2CC2)c(OCC2CCC3C(C2)C3(F)F)cc1F (stereo not shown)
220 nM	6.3 nM	O=C(NS(=O)(=O)N1CCC1)c1cc(C2CC2)c(OC2CCC3(CCCCC3)CC2)cc1F
67 nM	23 nM	CC1(F)CCC(COc2cc(F)c(C(=O)NS(=O)(=O)N3CCC3)cc2C2CC2)CC1 (stereo not shown)
130 nM	3 nM	CC1(COc2cc(F)c(C(=O)NS(=O)(=O)N3CCC3)cc2C2CC2)CCC(C(F)(F)F)CC1 (stereo not shown) [Example 427, N-(azetidin-1-ylsulfonyl)-5-cyclopropyl-2-fluoro-4-[[1-methyl-4-(trifluoromethyl)cyclohexyl]methoxy]benzamide]
100 nM	20 nM	O=C(NS(=O)(=O)N1CCC1)c1cc(C2CC2)c(O[C@H]2C3CC4CC2C[C@](F)(C4)C3)cc1F
11 nM	7 nM	CC1CCCCC1COc1cc(F)c(C(=O)NS(=O)(=O)N2CCC2)cc1C1CC1 (stereo not shown) [Example 372]
80 nM	31 nM	O=C(NS(=O)(=O)N1CCC1)c1cc(C2CC2)c(O[C@@H]2C[C@@H]3CC[C@H]2C3)cc1F
8 nM	4 nM	CC1(C)CCCC(COc2cc(F)c(C(=O)NS(=O)(=O)N3CCC3)cc2C2CC2)C1 (stereo not shown)
8 nM	4 nM	O=C(NS(=O)(=O)N1CCC1)c1cc(C2CC2)c(OCC23CC4CC(CC(CF)(C4)C2)C3)cc1F
57 nM	23 nM	O=C(NS(=O)(=O)N1CCC1)c1cc(C2CC2)c(OCC2CCCC(F)(F)C2)cc1F (stereo not shown) [Example 404]
28 nM	8 nM	CC1CCC(COc2cc(F)c(C(=O)NS(C)(=O)=O)cc2C2CC2)CC1 (stereo not shown)
43 nM	22 nM	O=C(NS(=O)(=O)N1CCC1)c1cc(C2CC2)c(OCC2CCCC(F)(F)C2)cc1F (stereo not shown)
120 nM	16 nM	CC1(C)CCCC(Oc2cc(F)c(C(=O)NS(=O)(=O)N3CCC3)cc2C2CC2)C1 (stereo not shown) [Example 357]
300 nM	22 nM	CS(=O)(=O)NC(=O)c1cc(C2CC2)c(OCC2CCCC(F)(F)C2)cc1F (stereo not shown) [Example 402]
32 nM	70 nM	O=C(NS(=O)(=O)N1CCC1)c1cc(C2CC2)c(O[C@H]2C[C@@H]3CC[C@H]2C3)cc1F
390 nM	60 nM	CC1CCCC(C)C1COc1cc(F)c(C(=O)NS(=O)(=O)N2CCC2)cc1C1CC1 (stereo not shown)
32 nM	22 nM	O=C(NS(=O)(=O)N1CCC1)c1cc(C2CC2)c(OCC2CCC3CC3C2)cc1F (stereo not shown) [Example 432, N-(azetidin-1-ylsulfonyl)-5-cyclopropyl-2-fluoro-4-(norcaran-3-ylmethoxy)benzamide]
100 nM	11 nM	[2H]C1([2H])C([2H])([2H])C([2H])([2H])C([2H])(COc2cc(F)c(C(=O)NS(=O)(=O)N3CCC3)cc2C2CC2)C([2H])([2H])C1([2H])[2H]
190 nM	100 nM	CO[C@]12CC3CC(C1)[C@@H](Oc1cc(F)c(C(=O)NS(=O)(=O)N4CCC4)cc1C1CC1)C(C3)C2
77 nM	25 nM	O=C(NS(=O)(=O)N1CCC1)c1cc(Cl)c(OCC2CCC3(CCC3)CC2)cc1F
280 nM	270 nM	CC1(F)CCC(COc2cc(F)c(C(=O)NS(=O)(=O)N3CCC3)cc2Cl)CC1 (stereo not shown)
710 nM	450 nM	CC1(F)CCC(COc2cc(F)c(C(=O)NS(=O)(=O)N3CCC3)cc2Cl)CC1 (stereo not shown) [Example 331]
120 nM	44 nM	O=C(NS(=O)(=O)N1CCC1)c1cc(C2CC2)c(OC2CCC(Cl)(Cl)CC2)cc1F
5 nM	9 nM	N#CC1(COc2cc(F)c(C(=O)NS(=O)(=O)N3CCC3)cc2C2CC2)C2CC3CC(C2)CC1C3 (stereo not shown)
10 nM	13 nM	O=C(NS(=O)(=O)N1CCC1)c1cc(C2CC2)c(OCC23CCCCC2C3(F)F)cc1F (stereo not shown) [Example 431, N-(azetidin-1-ylsulfonyl)-5-cyclopropyl-4-[(7,7-difluoronorcaran-1-yl)methoxy]-2-fluoro-benzamide]
23 nM	26 nM	O=C(NS(=O)(=O)N1CCC(O)CC1)c1cc(C2CC2)c(OCC23CC4CC(CC(C4)C2)C3)cc1F
24 nM	21 nM	O=C(NS(=O)(=O)N1CCC1)c1cc(C2CC2)c(O[C@H]2C3CC4CC2C[C@@](F)(C4)C3)cc1F
100 nM	8 nM	O=C(NS(=O)(=O)N1CCC1)c1cc(C2CC2)c(OCC2CCC(C(F)(F)F)CC2)cc1F (stereo not shown) [Example 429, N-(azetidin-1-ylsulfonyl)-5-cyclopropyl-2-fluoro-4-[[4-(trifluoromethyl)cyclohexyl]methoxy]benzamide]

— US8952169B2 (Genentech, Inc., priority 2012, dated 2015)
